Measurements: PMC8817134, “Galangin as a direct inhibitor of vWbp protects mice from Staphylococcus aureus‐induced pneumonia” (Journal of Cellular and Molecular Medicine, 2021)

Key:
[1] = target: T1, vWbp (von Willebrand factor-binding protein) (Staphylococcus aureus, UniProt Q93SM9); assay: fluorescence quenching; conditions: read-out: WT vWbp (converted)
T1 construct: gene vwb; His-tagged, pET15b, E. coli BL21(DE3), Ni-NTA purified
Source text: (§1) fluorescence quenching on vWbp (von Willebrand factor-binding protein)

[2] = target: T1, vWbp (von Willebrand factor-binding protein); assay: biolayer interferometry (Octet RED, Ni-NTA sensor); conditions: read-out: binding constant
[3] = target: T1, vWbp (von Willebrand factor-binding protein); assay: tube and plate coagulation assay; type: biochemical; conditions: purified vWbp added to heparinised rabbit blood or fibrinogen agarose, 37 °C; 16-256 μg/ml galangin
[4] = target: T2, vWbp (von Willebrand factor-binding protein) (Staphylococcus aureus, UniProt Q93SM9, W64A); assay: biochemical
T2 construct: gene vwb
Source text: as §1

[5] = target: T3, vWbp (von Willebrand factor-binding protein) (Staphylococcus aureus, UniProt Q93SM9, D70A); assay: biochemical
T3 construct: gene vwb
Source text: as §1

[6] = target: T4, vWbp (von Willebrand factor-binding protein) (Staphylococcus aureus, UniProt Q93SM9, L69A); assay: biochemical
T4 construct: gene vwb
Source text: as §1

[7] = target: T5, vWbp (von Willebrand factor-binding protein) (Staphylococcus aureus, UniProt Q93SM9, M83A); assay: biochemical
T5 construct: gene vwb
Source text: as §1

`O=c1c(O)c(-c2ccccc2)oc2cc(O)cc(O)c12` [galangin, 3,5,7-trihydroxyflavone] was tested. Which Kd [1] did it give?
The Kd was 6.9 µM.

And the Kd [2]?
The Kd was 11 µM.

What about the “tube and plate coagulation assay” value [3] of the same compound?
Its value is “these results demonstrated that galangin can inhibit the coagulase activity of vWbp”.

What about the Kd [4] of the same compound?
Its Kd is 20 µM.

And the Kd [5]?
Its Kd is 9.71 µM.

What about the Kd [6] of the same compound?
The Kd was 31.2 µM.

And the Kd [7]?
The Kd was 7.35 µM.
